# Where two headings read alike, the source gives them in different places.
# Tests used:
# Type in all cases: biochemical
# [1] = target: T1, PDK2/PDHK2 (Homo sapiens, UniProt Q15119); assay: HotSpot in vitro kinase radiometric assay; details: PDK2/PDHK2; ATP 15 uM; read-out: IC50 (M) Control Cmpd
# T1 construct: purchased Reaction Biology (HotSpot contract assay)
# Protocol: (§1) Accordingly, we selected five additional representative HSP90 inhibitors, at least one from each chemical class, including both synthetic inhibitors and natural products. […]
# (§2) This radioisotope binding assay was designed to directly detect the true product without the use of modified substrates, coupling enzymes, or detection antibodies thus enabling to directly measure inhibition of catalytic activity. Test or control compounds were incubated with kinase, substrate, cofactors, and radioisotope-labeled ATP (32P-ɣ-ATP or 33P-ɣ-ATP). The reaction mixtures were then spotted onto filter papers, which bind the radioisotope-labeled catalytic product.
# [2] = target: T2, PDK4/PDKH4 (Homo sapiens, UniProt Q16654); assay: HotSpot in vitro kinase radiometric assay; details: PDK4/PDKH4; ATP 30 uM; read-out: IC50 (M) Control Cmpd
# T2 construct: purchased Reaction Biology (HotSpot contract assay)
# Protocol: as §1, §2
# [3] = target: T3, 382 unique human kinases (Homo sapiens, UniProt P10398); assay: biochemical; details: ARAF; read-out: Control Compound IC50*
# T3 construct: purchased Reaction Biology (HotSpot contract assay)
# T3 sequence (P10398 1-606): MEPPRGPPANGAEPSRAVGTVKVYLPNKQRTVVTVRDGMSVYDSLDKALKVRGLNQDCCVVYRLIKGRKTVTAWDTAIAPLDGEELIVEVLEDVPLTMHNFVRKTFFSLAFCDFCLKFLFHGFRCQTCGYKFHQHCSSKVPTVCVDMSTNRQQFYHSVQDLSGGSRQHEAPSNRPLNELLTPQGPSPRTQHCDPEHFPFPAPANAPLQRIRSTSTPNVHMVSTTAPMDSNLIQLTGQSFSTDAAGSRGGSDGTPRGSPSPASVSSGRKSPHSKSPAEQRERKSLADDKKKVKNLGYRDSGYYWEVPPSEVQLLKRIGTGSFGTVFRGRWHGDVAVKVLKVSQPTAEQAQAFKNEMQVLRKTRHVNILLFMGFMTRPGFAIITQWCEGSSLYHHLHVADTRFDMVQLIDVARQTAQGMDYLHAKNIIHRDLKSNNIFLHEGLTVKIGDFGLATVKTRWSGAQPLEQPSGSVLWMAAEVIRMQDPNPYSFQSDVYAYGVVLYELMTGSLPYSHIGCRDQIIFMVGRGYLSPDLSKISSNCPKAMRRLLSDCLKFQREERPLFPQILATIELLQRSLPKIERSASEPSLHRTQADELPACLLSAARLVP
# [4] = target: T4, 382 unique human kinases (Homo sapiens, UniProt P68400); assay: biochemical; details: CK2a; read-out: Control Compound IC50*
# T4 construct: purchased Reaction Biology (HotSpot contract assay)
# [5] = target: T5, 382 unique human kinases (Homo sapiens, UniProt Q15118); assay: biochemical; details: PDK1/PDHK1; [ATP] 50 µM; read-out: Control Compound IC50*
# T5 construct: purchased Reaction Biology (HotSpot contract assay)
# [6] = target: T6, 382 unique human kinases (Homo sapiens, UniProt Q15119); assay: biochemical; details: PDK2/PDHK2; [ATP] 15 µM; read-out: Control Compound IC50*
# T6 construct: purchased Reaction Biology (HotSpot contract assay)
# [7] = target: T7, 382 unique human kinases (Homo sapiens, UniProt Q15120); assay: biochemical; details: PDK3/PDHK3; [ATP] 30 µM; read-out: Control Compound IC50*
# T7 construct: purchased Reaction Biology (HotSpot contract assay)
# [8] = target: T8, 382 unique human kinases (Homo sapiens, UniProt Q16654); assay: biochemical; details: PDK4/PDKH4; [ATP] 30 µM; read-out: Control Compound IC50*
# T8 construct: purchased Reaction Biology (HotSpot contract assay)
# [9] = target: T9, 382 unique human kinases (Homo sapiens, UniProt Q9NR20); assay: biochemical; details: DYRK4; read-out: Control Compound IC50*
# T9 construct: purchased Reaction Biology (HotSpot contract assay)
# T9 sequence (Q9NR20 1-520): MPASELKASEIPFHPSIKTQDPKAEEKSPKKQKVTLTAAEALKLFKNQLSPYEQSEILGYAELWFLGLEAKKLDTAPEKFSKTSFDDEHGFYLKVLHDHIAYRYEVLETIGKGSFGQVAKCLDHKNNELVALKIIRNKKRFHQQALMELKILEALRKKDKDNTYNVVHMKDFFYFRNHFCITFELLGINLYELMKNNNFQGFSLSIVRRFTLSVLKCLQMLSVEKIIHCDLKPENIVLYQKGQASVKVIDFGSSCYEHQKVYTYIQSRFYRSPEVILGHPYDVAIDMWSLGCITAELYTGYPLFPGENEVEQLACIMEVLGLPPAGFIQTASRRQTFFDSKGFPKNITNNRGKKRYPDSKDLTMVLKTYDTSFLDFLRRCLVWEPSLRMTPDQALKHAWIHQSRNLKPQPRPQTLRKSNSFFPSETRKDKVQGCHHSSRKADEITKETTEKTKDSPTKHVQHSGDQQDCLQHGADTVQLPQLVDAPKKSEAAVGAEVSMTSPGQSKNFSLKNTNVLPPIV
# [10] = target: T10, 382 unique human kinases (Homo sapiens, UniProt Q9NYL2); assay: biochemical; details: ZAK/MLTK; [ATP] 50 µM; read-out: Control Compound IC50*
# T10 construct: purchased Reaction Biology (HotSpot contract assay)
# [11] = target: T11, 382 unique human kinases (Homo sapiens, UniProt Q9Y572); assay: biochemical; details: RIPK3; [ATP] 2.5 µM; read-out: Control Compound IC50*
# T11 construct: purchased Reaction Biology (HotSpot contract assay)
# [12] = test system: 382 unique human kinases; assay: biochemical; details: read-out: Control Compound IC50*
# T2 sequence (Q16654 whole entry): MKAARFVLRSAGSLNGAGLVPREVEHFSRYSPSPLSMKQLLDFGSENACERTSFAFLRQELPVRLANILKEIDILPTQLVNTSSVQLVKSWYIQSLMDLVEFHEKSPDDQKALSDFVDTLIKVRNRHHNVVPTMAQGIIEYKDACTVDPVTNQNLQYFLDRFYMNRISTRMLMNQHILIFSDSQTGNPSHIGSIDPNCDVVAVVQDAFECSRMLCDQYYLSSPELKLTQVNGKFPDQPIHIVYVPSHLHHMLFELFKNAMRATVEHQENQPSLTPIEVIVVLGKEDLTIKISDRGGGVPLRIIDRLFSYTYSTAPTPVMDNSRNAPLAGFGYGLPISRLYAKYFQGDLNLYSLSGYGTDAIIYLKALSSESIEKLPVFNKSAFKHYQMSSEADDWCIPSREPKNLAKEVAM
# T8 sequence (Q16654 whole entry): as above
# T4 sequence (P68400 whole entry): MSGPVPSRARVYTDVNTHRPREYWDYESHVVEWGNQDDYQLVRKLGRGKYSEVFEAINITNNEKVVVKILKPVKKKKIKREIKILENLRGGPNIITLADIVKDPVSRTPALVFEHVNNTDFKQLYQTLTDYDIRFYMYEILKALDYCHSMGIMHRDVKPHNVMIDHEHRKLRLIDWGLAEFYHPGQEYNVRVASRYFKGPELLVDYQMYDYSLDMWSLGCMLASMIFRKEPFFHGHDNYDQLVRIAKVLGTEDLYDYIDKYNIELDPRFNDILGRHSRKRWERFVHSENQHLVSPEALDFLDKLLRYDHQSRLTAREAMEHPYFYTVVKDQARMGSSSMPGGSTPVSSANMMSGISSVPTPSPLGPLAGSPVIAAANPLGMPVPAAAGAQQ
# T7 sequence (Q15120 whole entry): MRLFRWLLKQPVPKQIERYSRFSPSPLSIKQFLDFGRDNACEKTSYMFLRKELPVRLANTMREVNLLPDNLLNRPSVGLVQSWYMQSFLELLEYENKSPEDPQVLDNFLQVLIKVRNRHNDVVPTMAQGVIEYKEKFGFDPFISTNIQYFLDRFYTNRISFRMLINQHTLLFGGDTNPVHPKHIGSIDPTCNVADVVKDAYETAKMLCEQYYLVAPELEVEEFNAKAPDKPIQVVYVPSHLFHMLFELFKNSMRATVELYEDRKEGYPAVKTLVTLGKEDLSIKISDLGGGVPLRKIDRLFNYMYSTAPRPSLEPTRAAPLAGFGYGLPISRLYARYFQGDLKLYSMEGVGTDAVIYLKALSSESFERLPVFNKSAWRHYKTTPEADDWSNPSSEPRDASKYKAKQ
# T5 sequence (Q15118 29-436): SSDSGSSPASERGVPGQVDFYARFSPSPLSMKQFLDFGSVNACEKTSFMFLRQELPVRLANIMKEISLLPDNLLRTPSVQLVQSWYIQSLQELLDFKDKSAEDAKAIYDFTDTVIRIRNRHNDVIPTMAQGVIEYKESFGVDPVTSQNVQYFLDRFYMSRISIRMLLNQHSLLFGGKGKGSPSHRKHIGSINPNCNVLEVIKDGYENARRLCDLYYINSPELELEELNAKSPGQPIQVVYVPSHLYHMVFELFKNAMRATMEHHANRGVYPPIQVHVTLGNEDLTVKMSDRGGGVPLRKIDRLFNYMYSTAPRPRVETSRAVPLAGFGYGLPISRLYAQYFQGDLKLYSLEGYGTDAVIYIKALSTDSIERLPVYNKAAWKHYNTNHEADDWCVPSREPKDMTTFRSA
# T10 sequence (Q9NYL2 whole entry): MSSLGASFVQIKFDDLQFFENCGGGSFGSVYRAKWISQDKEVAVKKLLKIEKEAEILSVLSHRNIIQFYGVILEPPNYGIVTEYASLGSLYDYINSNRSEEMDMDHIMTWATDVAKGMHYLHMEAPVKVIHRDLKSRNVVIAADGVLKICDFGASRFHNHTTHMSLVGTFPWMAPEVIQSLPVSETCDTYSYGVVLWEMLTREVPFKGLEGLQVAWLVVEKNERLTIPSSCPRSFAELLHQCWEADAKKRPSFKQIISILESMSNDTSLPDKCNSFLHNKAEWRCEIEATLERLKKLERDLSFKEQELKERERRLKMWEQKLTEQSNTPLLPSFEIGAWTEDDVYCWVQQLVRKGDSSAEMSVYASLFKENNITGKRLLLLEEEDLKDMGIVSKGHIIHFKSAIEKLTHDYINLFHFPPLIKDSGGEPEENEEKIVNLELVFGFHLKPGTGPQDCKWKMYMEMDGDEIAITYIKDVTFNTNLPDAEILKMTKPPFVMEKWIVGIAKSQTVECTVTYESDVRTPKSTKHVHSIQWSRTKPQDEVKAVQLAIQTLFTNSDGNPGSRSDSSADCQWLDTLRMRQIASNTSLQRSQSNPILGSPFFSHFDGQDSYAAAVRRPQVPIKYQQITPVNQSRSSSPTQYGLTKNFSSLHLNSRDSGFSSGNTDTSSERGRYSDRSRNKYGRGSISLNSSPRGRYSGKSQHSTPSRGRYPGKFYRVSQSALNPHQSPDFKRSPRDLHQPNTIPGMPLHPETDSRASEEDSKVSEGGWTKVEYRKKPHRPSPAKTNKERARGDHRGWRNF
# T11 sequence (Q9Y572 whole entry): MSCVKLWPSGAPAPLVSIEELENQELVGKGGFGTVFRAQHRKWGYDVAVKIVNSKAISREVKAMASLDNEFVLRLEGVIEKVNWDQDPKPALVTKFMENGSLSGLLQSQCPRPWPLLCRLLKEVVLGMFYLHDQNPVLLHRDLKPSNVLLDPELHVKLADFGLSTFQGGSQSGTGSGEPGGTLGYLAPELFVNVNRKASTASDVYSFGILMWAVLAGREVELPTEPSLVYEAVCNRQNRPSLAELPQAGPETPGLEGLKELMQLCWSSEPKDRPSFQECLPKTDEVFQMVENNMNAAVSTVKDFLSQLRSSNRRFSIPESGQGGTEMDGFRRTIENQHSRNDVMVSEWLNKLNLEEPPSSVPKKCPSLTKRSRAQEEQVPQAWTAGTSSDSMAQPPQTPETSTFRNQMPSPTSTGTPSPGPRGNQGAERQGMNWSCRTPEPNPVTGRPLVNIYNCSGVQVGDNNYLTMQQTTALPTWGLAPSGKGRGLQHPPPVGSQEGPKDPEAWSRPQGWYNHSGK
compound,measurement,setting,value
O=C1Nc2ccc(I)cc2/C1=C/c1cc(Br)c(O)c(Br)c1 [GW5074],IC50,[1],6.39e-06 M
same,IC50,[2],2.51e-06 M
same,IC50,[3],14 nM
same,IC50,[4],398 nM
same,IC50,[5],32200 nM
same,IC50,[6],6610 nM
same,IC50,[7],12100 nM
same,IC50,[8],1720 nM
same,IC50,[9],1880 nM
same,IC50,[10],2620 nM
same,IC50,[11],1060 nM
